Legend:
Assay type in all cases: cell-based, human
NOTCH reporter activity = assay: NOTCH reporter vector assay in OMM1 uveal melanoma cells
Procedure: (§1) FIG. 9: NOTCH signaling controls uveal melanoma cell growth and migration. (A) OMIVI1 uveal melanoma cells were transfected with the NOTCH reporter vector before being treated or not with DLL4 1μg/ml in absence or presence of BMS-906024 10 μM. Data shown are mean +SD of three experiments. ***p<0.001 and *p<0.05. (B) 3D spheroid assays of 92.1 cells exposed to DAPT 10μg/ml or BMS-906024 lOpM for 96 h. Surface of the imaged spheroid area was determined. ***p<0.001. Representative images are shown. (C) Boyden chambers experiments with 92.1 cells treated or not with DLL4 1 μg/ml. Data shown are mean+SD of three experiments. **p<0.01. Representative images are shown.
Human uveal melanoma cell lines Me127051, 92.152, OMM2.551 were grown in RPMI glutamax supplemented with 10% FBS, OMM153 were grown in DMEM glutamax supplemented with Sodium Pyruvate 1%, MEM Essential Vitamin Mixture 1%, NEAA 1%, Hepes 1%, 10% FBS, MP46, MP65 (from ATCC) were grown in DMEM/F12 w/Glutamine 10% FBS, Glutamax 2mM, Insulin-Transferin-Selenium 0.5x at 37° C. in a humidified atmosphere containing 5% CO2. LipofectamineTM RNAiMAX and opti-MEM medium were purchased from Invitrogen (San Diego, CA, USA). BMS-906024 (#BM0018) and DAPT (#5942) were obtained from Sigma, DLL4 from R&D systems (#1506-D4-050).

[1] = tested on: 92.1 primary uveal melanoma cells; assay: 3D spheroid (melanosphere) assay of 92.1 cells; details: 96 h
Description: FIG. 8: HES6 knockdown inhibits uveal melanoma anchorage-dependent and—independent cell growth. (A) Q-RT-PCR showing HES6 level in OMM2.5 metastatic melanoma cells transfected with a control siRNA (siCtl) or two different pools of multiple siRNA targeting HES6 (siHES6#1 and siHES6#2). (B-C) Colony formation assay of OMM2.5 and OMM1 metastatic uveal melanoma cells treated with control siRNA or with two different pools of multiple siRNA targeting HES6 (siHES6#1 and siHES6#2). Representative images are shown. (D) 92.1 primary uveal melanoma cells expressing doxycycline-inducible control or two different HES6 shRNA in presence of 1 μg/ml doxycycline for 72 hrs. Efficiency is shown by RT-QPCR. ***p<0.001 (E) Colony formation assay of 92.1 primary uveal melanoma cells expressing doxycycline-inducible control or two different HES6 shRNA. Representative images are shown. Crystal violet was next dissolved and measured at 490 nm. ***p<0.001. (F) 3D spheroid assays of 92.1 cells expressing doxycycline-inducible control or HES6 shRNA in presence of 1 μg/ml doxycycline for 96 hrs. Surface of the imaged spheroid area was determined. ***p<0.001. Representative images are shown.
FIG. 9: NOTCH signaling controls uveal melanoma cell growth and migration. […] Surface of the imaged spheroid area was determined. ***p<0.001. […]

[2] = tested on: Me1270 primary uveal melanoma cells; assay: Migration of Me1270 cells; details: Me1270 cells expressing doxycycline-inducible HES6 shRNA, doxycycline 1 μg/ml 48 hrs, DLL4 1 μg/ml
Description: FIG. 6: HES6 expression in primary uveal melanomas controls the motile ability. (A) Relative expression of HES/HEY gene family (TCGA dataset). (B) Human primary uveal Me1270 melanoma cells were transfected with a control siRNA (siCtl) or two different pools of multiple siRNA targeting HES6 (siHES6#1 and siHES6#2). siRNA efficacy is shown by RT-QPCR. (C) Migration Me1270 cells transfected with the indicated siRNA. ***p<0.001. Representative images are shown. (D) Colony formation assay of Me1270 cells transfected with the indicated siRNA. ***p<0.001. Representative images are shown.
FIG. 10: HES6 signaling is a key driver of aggressive and motile phenotypes. Migration of Me1270 cells expressing doxycycline-inducible control or HES6 shRNA in presence of 1 μg/ml doxycycline for 48 hrs in presence or absence of DLL4 1 *g/ml. ***p<0.001. Representative images are shown.
Briefly, a single pulse of 50 nM of HES6 siRNA (Dharmacon L-008408-00-0005 and […]
Cell migration was assessed using a modified Boyden chamber assay with 8-μm pore filter inserts for 24-well plates (BD Bioscience). […] Cells adherent to the underside of the filters were fixed with 4% PFA, stained with 0.4% crystal violet and five random fields at x20 magnification were counted. […]

92.1 cells = assay: Boyden chamber migration of 92.1 cells; details: DLL4 1 μg/ml
Procedure: as §1
FIG. 11: HES6 inhibition impairs metastatic uveal melanoma cells motile ability. Migration of 92.1 cells expressing doxycycline-inducible control or HES6 shRNA in presence of 1 μg/ml doxycycline for 48 hrs in presence or absence of DLL4 1 μg/ml. ***p<0.001. Representative images are shown.
Cell migration was assessed using a modified Boyden chamber assay with 8-μm pore filter inserts for 24-well plates (BD Bioscience). Cells were seeded on the upper chamber of a trans-well and DMEM 7% FBS placed into the lower chamber. Cells adherent to the underside of the filters were fixed with 4% PFA, stained with 0.4% crystal violet and five random fields at x20 magnification were counted. […]

Compound: CN1C(=O)[C@@H](NC(=O)[C@H](CCC(F)(F)F)[C@H](CCC(F)(F)F)C(N)=O)N=C(c2ccccc2)c2ccccc21 [BMS-906024, reference compound]
- effect on DLL4-increased NOTCH reporter activity (NOTCH reporter activity; DLL4 1μg/ml in presence of BMS-906024 10 μM): inhibited
- melanosphere formation (surface of spheroid area) ([1]; BMS-906024 lOpM): reduced

Compound: O=C(O)CN(CC(=O)O)CC(O)CN(CC(=O)O)CC(=O)O [DAPT, diaminopropanol tetraacetic acid]
- melanosphere formation (surface of spheroid area) ([1]; DAPT 10μg/ml): reduced

Compound: DLL4: Delta-like ligand 4, NOTCH natural ligand, from R&D systems (#1506-D4-050)
- NOTCH reporter activity (NOTCH reporter activity; DLL4 1μg/ml): increased
- migration in HES6 knockdown cells [2]: could no longer increased migration
- migration in HES6 knockdown cells (92.1 cells; 92.1 cells expressing doxycycline-inducible HES6 shRNA, doxycycline 1 μg/ml 48 hrs): could no longer increased migration
- uveal melanoma cell migration (92.1 cells; 92.1 cells): enhanced

From patent US20230416830A1, “METHODS AND COMPOSITIONS FOR PREDICTING AND TREATING UVEAL MELANOMA” (INSERM (INSTITUT NATIONAL DE LA SANTÉ ET DE LA RECHERCHE …, priority 2020, published 2023)
